Experimental data from US12435294B2, “Prevention of the oxidation of perfumery raw materials and food raw materials” (Firmenich SA, priority 2018, dated 2025).
Several values for one entry are separate records, joined by “and”; a condition that tells them apart may be missing. Identical values can stand only once. Like-named read-outs stand apart in the source and are kept apart here.

Legend:
[1] = Solubility / miscibility observed on addition to the treated material
[2] = POV reduction in model citrus perfume (mixed citrus oil in 90/10 v/v ethanol/water); details: for reduction in POV relative to untreated material: 7 days after addition, 1.0% w/v in model perfume; for Reduction in POV (%): vs untreated
[3] = HPLC chemiluminescence peak area of oxidized limonene; details: oxidized limonene 100 μL + 2 mg HDPA
Experimental: Preparation of the Treated Sample: Oxidized limonene (100 μL, with a starting POV of approximately 38 mmol/L) was treated with 2 mg of HDPA (approximately 2 eq of HP). The treated & un-treated limonene samples were allowed to stand on the benchtop under ambient laboratory light at room temperature, and HPLC Chemiluminescence measurements were taken periodically. The same quantity of untreated limonene was prepared in a 2nd vial and monitored similarly to the treated one for comparison.

[4] = POV reduction in sunflower oil; details: for POV of treated oil / % Reduction in POV: 0.3358 g in 15 mL sunflower oil
[5] = POV reduction in autoxidized limonene; details: for POV / POV reduction: 250 μL in 20 mL autoxidized limonene
Experimental: The vial was shaken once and allowed to stand for 50 minutes. No further treatment was done prior to the POV testing. […] POV before treatment was 65.97 mEq./L, and POV after treatment was 17.21 mEq./L. […] The vial was shaken once and allowed to stand, while being monitored for POV value as a function of time. […] The vial was shaken once and allowed to stand, while being monitored for POV value as a function of time.

[6] = 1 day, approximately 150 mg (1.0% w/v) in 15 mL model perfume (Examples 14, 20, 21)
[7] = 2 days, 1.0% w/v in 15 mL model perfume (Examples 14, 20, 21)
[8] = 4 days, 1.0% w/v in 15 mL model perfume (Examples 14, 20, 21)
[9] = 7 days, 1.0% w/v in 15 mL model perfume (Examples 14, 20, 21)
[10] = model citrus perfume, DMESi 0.3247 g, 0 d since addition
[11] = model citrus perfume, DMESi 0.3247 g, 0.08 d since addition
[12] = model citrus perfume, DMESi 0.3247 g, 1.29 d since addition
[13] = model citrus perfume, DMESi 0.3247 g, 5 d since addition
[14] = model citrus perfume, DMESi 0.3247 g, 14 d since addition

Molecule: C[SiH](C)O[Si](C)(C)C [PMDSi, Pentamethyldisiloxane]
- solubility / miscibility in model citrus perfume (in words) ([1]; on addition to hydroalcoholic model citrus perfume): miscible with the perfume

Molecule: N[C@@H](CCC(=O)N[C@@H](CS)C(=O)NCC(=O)O)C(=O)O [glutathione]
- % POV Reduction ([2]; approximately 0.15 g in 15 mL model perfume, 3 days after addition): 100%
- POV after Treatment ([2]; approximately 0.15 g in 15 mL model perfume, 3 days after addition, untreated 5.55 mmol/L): 0.00 mmol/L

Molecule: CC1=C(C(=O)N(C)C)CC(C(=O)N(C)C)=C(C)N1 [HDPA, N(3),N(3),N(5),N(5),2,6-Hexamethyl-1,4-Dihydro-3,5-Pyridinedicarboxamide]
- Peak Area Treated ([3]; treatment time 1 day): 12723
- Peak Area Treated ([3]; treatment time 6 days): 12128
- Peak Area Treated ([3]; treatment time 13 days): 10978
- Peak Area Treated ([3]; treatment time 20 days): 17089

Molecule: CCCCCCCCCCN(C)C.O=C(O)C(=O)c1ccco1 [FAA-DiMeC10A]
- POV of Treated Perfume [2, 6]: 5.06 mmol/L
- POV of Treated Perfume [2, 7]: 4.89 mmol/L
- POV of Treated Perfume [2, 8]: 4.68 mmol/L
- reduction in POV relative to untreated material [2]: 40.0%
- POV of Treated Perfume [2, 9]: 4.28 mmol/L
- POV of treated oil ([4]; 85 minutes since addition): 5.16 mmol/L
- % Reduction in POV ([4]; 85 minutes): 68.8%
- % Reduction in POV ([4]; 140 minutes): 82.1%
- POV of treated oil ([4]; 140 minutes): 2.97 mmol/L
- % Reduction in POV ([4]; 1320 mins (22 hrs)): 97.4%
- POV of treated oil ([4]; 1320 mins (22 hrs)): 0.43 mmol/L
- % Reduction in POV ([4]; 23 days): 100%
- POV of treated oil ([4]; 23 days, indistinguishable from BLANK): 0.00 mmol/L

Molecule: COC(=O)[C@H](CS)NC(C)=O [N-acetylcysteine methyl ester]
- % POV Reduction [2]: 100%
- POV after Treatment [2]: 0.00 mmol/L

Molecule: CC[SiH](C)C [DMESi, Dimethylethylsilane]
- POV (mmol/L) of treated [2, 10]: 13.2 mmol/L
- Reduction in POV (%) [2, 10]: 0.00%
- POV (mmol/L) of treated [2, 11]: 9.29 mmol/L
- Reduction in POV (%) [2, 11]: 29.62%
- POV (mmol/L) of treated [2, 12]: 9.32 mmol/L
- Reduction in POV (%) [2, 12]: 33.43%
- POV (mmol/L) of treated [2, 13]: 10.53 mmol/L
- Reduction in POV (%) [2, 13]: 30.03%
- POV (mmol/L) of treated [2, 14]: 13.65 mmol/L
- Reduction in POV (%) [2, 14]: 24.38%

Molecule: O=C(O)C(=O)c1ccco1 [α-Oxo-2-furanacetic acid, α-oxo-2-furanacetic acid]
- solubility in mixed citrus oil (in words) ([1]; on addition to mixed citrus oil): The majority of the added α-oxo-2-furanacetic acid did not dissolve

Molecule: CCOC(=O)[C@@H](N)CS.Cl [L-Cysteine ethyl ester hydrochloride]
- % POV Reduction ([2]; approximately 0.15 g in 15 mL model perfume, 89 minutes after addition): 100%
- POV after Treatment ([2]; approximately 0.15 g in 15 mL model perfume, 89 minutes after addition, untreated 5.55 mmol/L): 0.00 mmol/L

Molecule: 2-Phospho-L-ascorbic acid trisodium salt [Vc-PTNa]
- POV (mmol/L) of treated ([2]; trisodium salt): 12.4 mmol/L and 11.7 mmol/L and 11.57 mmol/L and 10.15 mmol/L and 8.7 mmol/L and 9.22 mmol/L and 9.49 mmol/L

Molecule: O=C(O)C(=O)c1ccccc1.O=C1NCCN1CCO [PhGA-HEI]
- POV of Treated Perfume [2, 6]: 3.51 mmol/L
- POV of Treated Perfume [2, 7]: 3.18 mmol/L
- POV of Treated Perfume [2, 8]: 3.06 mmol/L
- reduction in POV relative to untreated material [2]: 58.8%
- POV of Treated Perfume [2, 9]: 2.94 mmol/L

Molecule: CN(C)CCO.CN(C)CCO.O=C(O)CCC(=O)C(=O)O [AKG DiDeanol]
- POV of Treated Perfume ([2]; 60 min, approximately 200 mg (1.0% w/v) in 20 mL model perfume (Example 9)): 5.95 mmol/L
- POV of Treated Perfume ([2]; 75 min, 1.0% w/v in 20 mL model perfume (Example 9)): 5.66 mmol/L
- POV of Treated Perfume ([2]; 115 min, 1.0% w/v in 20 mL model perfume (Example 9)): 4.96 mmol/L
- POV of Treated Perfume ([2]; 195 min, 1.0% w/v in 20 mL model perfume (Example 9)): 3.20 mmol/L
- POV of Treated Perfume ([2]; 210 min, 1.0% w/v in 20 mL model perfume (Example 9)): 3.08 mmol/L
- POV of Treated Perfume ([2]; 300 min (5 hours), 1.0% w/v in 20 mL model perfume (Example 9)): 2.31 mmol/L
- POV of Treated Perfume ([2]; 370 min, 1.0% w/v in 20 mL model perfume (Example 9)): 1.73 mmol/L
- POV of Treated Perfume ([2]; 380 min, 1.0% w/v in 20 mL model perfume (Example 9)): 1.72 mmol/L
- POV of Treated Perfume ([2]; […] (24 hours), 1.0% w/v in 20 mL model perfume (Example 9), indistinguishable from blank): 0.0 mmol/L

Molecule: CCC(=O)C(=O)O [2-oxobutyric acid]
- POV ([5]; 3 min since addition): 43.680 mEq/L
- POV reduction ([5]; 3 min since addition): 34.1%
- POV ([5]; 20 min since addition): 22.140 mEq/L
- POV reduction ([5]; 20 min since addition): 66.6%
- POV ([5]; 35 min since addition): 22.681 mEq/L
- POV reduction ([5]; 35 min since addition): 65.8%
- POV ([5]; 44 min since addition): 19.968 mEq/L
- POV reduction ([5]; 44 min since addition): 69.9%
- POV ([5]; 66 min since addition): 21.406 mEq/L
- POV reduction ([5]; 66 min since addition): 67.7%
- measured POV ([5]; additional 500 μL added (after 250 μL), additional 24 hours, 20 mL autoxidized limonene): 8.577 mEq./L
- total reduction ([5]; additional 500 μL added, additional 24 hours): 87.1%

Molecule: CCCC(=O)C(=O)O [2-oxovaleric acid]
- reduction in POV ([5]; 100 μL in 10 mL autoxidized limonene, 50 minutes, vs 65.97 mEq./L before): approximately 74%
- POV after Treatment ([5]; 100 μL in 10 mL autoxidized limonene, stood 50 minutes): 17.21 mEq./L
- POV ([4]; 30 minutes since addition, 250 μL in 25 mL sunflower oil): 7.38 mmol/L
- POV reduction ([4]; 30 minutes, 250 μL in 25 mL sunflower oil, vs most recent untreated POV): 16.2%
- POV ([4]; 50 minutes since addition, 250 μL in 25 mL sunflower oil): 7.84 mmol/L
- POV reduction ([4]; 50 minutes, 250 μL in 25 mL sunflower oil, vs most recent untreated POV): 11.0%
- POV, averaged value (in parentheses) ([4]; 23 hours since addition, 250 μL in 25 mL sunflower oil): 4.81 mmol/L
- POV ([4]; 23 hours since addition, 250 μL in 25 mL sunflower oil, single measurements): 4.95 mmol/L and 4.67 mmol/L
- POV reduction ([4]; 23 hours, 250 μL in 25 mL sunflower oil, vs most recent untreated POV): 45.4%
- POV, averaged value (in parentheses) ([4]; 46 hours since addition, 250 μL in 25 mL sunflower oil): 5.22 mmol/L
- POV ([4]; 46 hours since addition, 250 μL in 25 mL sunflower oil, single measurements): 5.34 mmol/L and 5.10 mmol/L
- POV reduction ([4]; 46 hours, 250 μL in 25 mL sunflower oil, vs most recent untreated POV): 53.0%
- POV, averaged value (in parentheses) ([4]; 15 days since addition, 250 μL in 25 mL sunflower oil): 2.10 mmol/L
- POV ([4]; 15 days since addition, 250 μL in 25 mL sunflower oil, single measurements): 2.27 mmol/L and 2.05 mmol/L and 1.99 mmol/L
- POV reduction ([4]; 15 days, 250 μL in 25 mL sunflower oil (0.83% v/v), vs untreated oil): 82.9%

Molecule: L-Ascorbic acid 2-phosphate sesqui-magnesium salt hydrate [Vc-PSeMg]
- POV (mmol/L) of treated ([2]; hydrate): 12.4 mmol/L and 12.32 mmol/L and 12.66 mmol/L and 12.28 mmol/L and 13.26 mmol/L and 15.25 mmol/L and 20.2 mmol/L

Molecule: O=CC(=O)O [Glyoxylic Acid]
- POV after Treatment ([2]; model citrus perfume, 3 days after addition of treating compound): 3.00 mmol/L
- % POV Reduction ([2]; model citrus perfume, 3 days after addition of treating compound, vs untreated sample): 54.6%
- POV after Treatment ([2]; model citrus perfume, 10 days after addition of treating compound): 1.61 mmol/L
- % POV Reduction ([2]; model citrus perfume, 10 days after addition of treating compound, vs untreated sample): 80.8%
